Laboratory results reported in paper PMC8583936, “Machine Learning Assisted Approach for Finding Novel High Activity Agonists of Human Ectopic Olfactory Receptors” (International Journal of Molecular Sciences, 2021).
Values joined by “and” are separate entries in the source; they are usually repeats but may differ in a detail not shown here. Equal entries are not always repeated. Where two headings read alike, the source gives them in different places.

What was measured:
OR1A1 [1] = molecular target: T1, OR1A1 (Homo sapiens, UniProt Q9P1Q5); test: Dual-Glo luciferase reporter gene assay, OR1A1 in Hana3A cells; assay type: cell-based; parameters: The open reading frames of ORs were amplified using Phusion polymerase; Rho-tag (first 20 amino acids of human rhodopsin) (N); expressed in transfected cells; host or cells: Hana3A cells (derived from HEK293T), pCI vector; co-transfected with human RTP1S, M3 receptor, CRE-Luc and SV40-RL; details: for activation of OR1A1 in dose-responses: Figure 4A; for normilazed value = (L-400/R-400): three replicates
T1 sequence (Q9P1Q5 1-309): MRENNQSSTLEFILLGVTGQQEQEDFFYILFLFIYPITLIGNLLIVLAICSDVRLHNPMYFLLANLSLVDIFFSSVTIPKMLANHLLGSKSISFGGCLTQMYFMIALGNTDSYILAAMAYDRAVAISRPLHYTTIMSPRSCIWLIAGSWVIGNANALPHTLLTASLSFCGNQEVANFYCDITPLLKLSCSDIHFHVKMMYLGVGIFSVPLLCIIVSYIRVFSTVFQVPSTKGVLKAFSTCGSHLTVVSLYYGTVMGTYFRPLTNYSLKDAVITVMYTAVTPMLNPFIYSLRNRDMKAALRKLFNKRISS
Method: Hana3A cells were maintained in minimal essential medium containing 10% FBS (vol/vol) with penicillin-streptomycin and amphotericin B (1/200 each vol/vol) at 37 °C and 5% CO2. Hana3A cells are derived from HEK293T [57] and are optimized for OR studies as shown in several studies, compared to earlier OR expression in Sf9 insect cells in Gat et al., and in Xenopus oocytes, COS-7, PC12h and CHO-K1 cells in Katada et al..
The Dual-Glo luciferase assay system (Promega, Madison, WI, USA) was used to evaluate the functionality of wild-type OR1A1 and OR2W1 in an in vitro system. The open reading frames of ORs were amplified using Phusion polymerase (Thermo Fisher Scientific, Waltham, MA, USA). Amplified fragments were cloned into pCI expression vector (Promega, Madison, WI, USA) containing the sequence encoding the first 20 amino acids of human rhodopsin (Rho-tag) at N-terminal. Hana3A cells have been cultured and plated the day before transfection with 6 mL at 1/10 of a 100% confluence 100 mm plate into 96-well plates coated with poly D-lysine. After overnight incubation, the required genes were transfected using, for each plate, 5 ng SV40-RL, 10 ng CRE-Luc, 5 ng human RTP1S [72], 2.5 ng M3 receptor [73] and 5 ng of receptor (OR1A1, OR2W1 or empty vector Rho-pCI) plasmid. After around 18 h of transfection, cells were stimulated during 3.5 h by 25 µL of odorant diluted in CD293 + 1% glutamine + 30 µM CuCl2. Odorants were obtained from Sigma Aldrich (St. Louis, MO, USA) and diluted at 1 M concentration in DMSO as stock solutions. […] The luminescence of Firefly (Luc) and Renilla (Rluc) luciferase, were then sequentially monitored by injecting the corresponding substrate following the supplier’s protocol. The activity in each well was normalized as (Luc-400)/(Rluc-400). The response of the receptor was also normalized to its basal activity as (NLX/NL0)-1 where NL0 is the normalized luminescence value at 0 µM of odorant and NLX the value at X µM. […] Raw results were first analyzed with Excel (Microsoft Corporation, Albuquerque, NM, USA) and dose response curves, max efficacy and EC50 have been determined with GraphPrism 6 software (GraphPad Software, La Jolla, CA, USA). Areas under the curves (AUC) were calculated in Excel by summing all the OR responses at different concentrations for each odorant.

OR1A1 [2] = molecular target: T1, OR1A1; details: cited from earlier work
OR2W1 = molecular target: T2, OR2W1 (Homo sapiens, UniProt Q9Y3N9); details: cited from earlier work
T2 sequence (Q9Y3N9 1-320): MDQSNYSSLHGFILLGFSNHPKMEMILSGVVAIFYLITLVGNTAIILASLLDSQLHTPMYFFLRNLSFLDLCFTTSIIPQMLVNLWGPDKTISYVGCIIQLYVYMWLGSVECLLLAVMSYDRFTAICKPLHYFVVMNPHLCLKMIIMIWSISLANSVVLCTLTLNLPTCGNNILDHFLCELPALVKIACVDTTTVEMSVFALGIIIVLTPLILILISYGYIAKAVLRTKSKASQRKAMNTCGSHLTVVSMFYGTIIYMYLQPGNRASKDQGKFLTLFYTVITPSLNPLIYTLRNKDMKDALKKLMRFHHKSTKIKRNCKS

[3] = OR1A1, log(agonist) vs. response (three parameters), 95% CI (profile likelihood), normalized (L-400/R-400)
[4] = OR1A1, log[molecule], M = -3.75
[5] = OR1A1, log[molecule], M = -4.25
[6] = OR1A1, log[molecule], M = -4.75
[7] = OR1A1, log[molecule], M = -5.25
[8] = OR1A1, log[molecule], M = -5.75
[9] = Table S1, ref Supplement references [1]-[9] as printed after each odorant name
[10] = Table S2, ref Supplement references [2]-[12] as printed after each odorant name

Row | Compound | Class (agonist / non-agonist / conflicting info.) for OR1A1 (OR1A1 [2]; [9]) | Class (agonist / non-agonist / antagonist / conflicting info.) for OR2W1 (OR2W1; [10]) | other results
1 | c1cnc2c(c1)ccc1cccnc12 [1,10-Phenanthroline] |  |  | activation of OR1A1 in dose-responses (OR1A1 [1]): did not activate OR1A1; Bottom (OR1A1 [1]; [3]): 1.108 to 2.224; normilazed value = (L-400/R-400) (OR1A1 [1]; OR1A1, log[molecule], M = -3.5): -5 and -0.03226 and 0.3636; normilazed value = (L-400/R-400) (OR1A1 [1]; [4]): 0.5532 and 0.08791 and 0.1429; normilazed value = (L-400/R-400) (OR1A1 [1]; OR1A1, log[molecule], M = -4): -3.909 and 0.2121 and 0.03846; normilazed value = (L-400/R-400) (OR1A1 [1]; [5]): 1.0814 and 2.077 and 1.521; normilazed value = (L-400/R-400) (OR1A1 [1]; OR1A1, log[molecule], M = -4.5): 1.468 and 1.358 and 1.008; normilazed value = (L-400/R-400) (OR1A1 [1]; [6]): 0.8876 and 1.015 and 1.576; normilazed value = (L-400/R-400) (OR1A1 [1]; OR1A1, log[molecule], M = -5): 1.356 and 1.5085 and 1.392; normilazed value = (L-400/R-400) (OR1A1 [1]; [7]): 1.691 and 1.671 and 2.1214; normilazed value = (L-400/R-400) (OR1A1 [1]; OR1A1, log[molecule], M = -5.5): 1.201 and 1.5718 and 1.847; normilazed value = (L-400/R-400) (OR1A1 [1]; [8]): 1.3268 and 1.745 and 1.5675; normilazed value = (L-400/R-400) (OR1A1 [1]; OR1A1, log[molecule], M = -6): 1.452 and 1.389 and 1.692
2 | C=C(C)[C@H]1CC=C(C)CC1 [Dipentene] |  |  | activation of OR1A1 in dose-responses (OR1A1 [1]): weak activator; Bottom (OR1A1 [1]; [3]): 0.9206 to 2.078; Top (OR1A1 [1]; [3]): 11.22 to 15.68; normilazed value = (L-400/R-400) (OR1A1 [1]; OR1A1, log[molecule], M = -3.5): 15.0728 and 8.79 and 8.6943; normilazed value = (L-400/R-400) (OR1A1 [1]; [4]): 10.4582 and 8.9424 and 9.316; normilazed value = (L-400/R-400) (OR1A1 [1]; OR1A1, log[molecule], M = -4): 8.181 and 7.514 and 8.062; normilazed value = (L-400/R-400) (OR1A1 [1]; [5]): 7.841 and 5.647 and 6.278; normilazed value = (L-400/R-400) (OR1A1 [1]; OR1A1, log[molecule], M = -4.5): 5.494 and 4.914 and 4.401; normilazed value = (L-400/R-400) (OR1A1 [1]; [6]): 3.7707 and 3.641 and 3.368; normilazed value = (L-400/R-400) (OR1A1 [1]; OR1A1, log[molecule], M = -5): 2.7632 and 2.301 and 2.9635; normilazed value = (L-400/R-400) (OR1A1 [1]; [7]): 2.721 and 2.59 and 2.766; normilazed value = (L-400/R-400) (OR1A1 [1]; OR1A1, log[molecule], M = -5.5): 2.326 and 2.0399 and 1.767; normilazed value = (L-400/R-400) (OR1A1 [1]; [8]): 1.87 and 1.732 and 1.479; normilazed value = (L-400/R-400) (OR1A1 [1]; OR1A1, log[molecule], M = -6): 1.6 and 1.531 and 1.2039; EC50 (OR1A1 [1]; OR1A1, three-parameter fit, 95% CI (profile likelihood)): 44.9 to 133 µM; LogEC50 (OR1A1 [1]; OR1A1, three-parameter fit, 95% CI (profile likelihood), log[molecule], M): -4.348 to -3.874
3 | O=C(O)CS [Thioglycolic acid] | Non-agonist | Non-agonist | 
4 | C/C=C/c1ccc(OC)cc1 [Trans-anethole] | Agonist | Agonist | 
5 | Cc1cnc(C)c(C)n1 [Trimethyl pyrazine] | Non-agonist | Non-agonist | 
6 | CCCCC(=O)O [Valeric acid] | Non-agonist | Non-agonist | 
7 | COc1cc(C(=O)O)ccc1O [Vanillic acid] | Non-agonist | Non-agonist | 
8 | COc1cc(C=O)ccc1O [Vanillin] | Non-agonist | Conflicting info. | 
9 | CCCCC/C=C\CCC=O [Z-4-decenal] | Conflicting info. | Non-agonist | 
10 | CC(=O)/C=C/C1=C(C)CCCC1(C)C [Β-ionone] | Non-agonist | Non-agonist | 
11 | CCC1CCC(=O)O1 (centres unmarked) [Γ-caprolactone] |  |  | Class (agonist / non-agonist / conflicting info.) for OR1A1 (OR1A1 [2]): Non-agonist; Class (agonist / non-agonist / antagonist / conflicting info.) for OR2W1 (OR2W1): Non-agonist
12 | (+)-Fenchone | Non-agonist | Non-agonist | 
13 | (+)-alpha-Pinene | Non-agonist | Non-agonist | 
14 | (+)-beta-Pinene | Non-agonist | Non-agonist | 
15 | (-)-Fenchone | Non-agonist | Non-agonist | 
16 | (-)-alpha-Terpineol | Non-agonist | Non-agonist | 
17 | (S)-(-)-citronellol |  |  | Class (agonist / non-agonist / conflicting info.) for OR1A1 (OR1A1 [2]): Agonist; Class (agonist / non-agonist / antagonist / conflicting info.) for OR2W1 (OR2W1): Agonist
18 | (S)-(-)-limonene | agonists | Agonist | 
19 | Caramel furanone | Non-agonist | Non-agonist | 
20 | Coffee difuran | Conflicting info. | Agonist | 
21 | Ethyl 3-methylthiopropionate | Non-agonist | Non-agonist | 
22 | Isoeugenol |  |  | Class (agonist / non-agonist / conflicting info.) for OR1A1 (OR1A1 [2]): Non-agonist; Class (agonist / non-agonist / antagonist / conflicting info.) for OR2W1 (OR2W1): Non-agonist
23 | Laevo-arabinose | Conflicting info. | Non-agonist | 
